Emax data for 26 compounds are collected here from patent US20250223296A1, “HYDROXYMETHYL AZABICYCLO[2.2.1]HEPTANES AND MEDICAL USES THEREOF” (ATROGI AB, priority 2022, published 2025).

The subject of assay [1] is L6-myotubes. The assay can be described thus: Measurement of intracellular cAMP levels in differentiated L6 cells. The format is cell-based. Conditions: Rattus norvegicus, L6, 0.25 h, compound at 10 µM (1×10^−5 M), 15 min, vs isoproterenol at 10 µM, read-out: Biological example 2: intracellular cAMP levels, activity compared to that of isoproterenol. The protocol: L6-myoblasts were grown in Dulbecco's Modified Eagle's Medium (DMEM) containing 1 g/L glucose supplemented with 10% fetal bovine serum, 2 mM L-Glutamine, 50 U/ml penicillin, 50 μg/mL streptomycin and 10 mM HEPES. Cells were plated at 1×10^5 cells per mL in 24-well plates. After reaching 90% confluence the cells were grown in medium containing 2% FBS for 7 days where upon cells differentiated into myotubes. Differentiated cells were serum-starved overnight and stimulated with an agonist, final concentration 1×10^−5 M, for 15 min in stimulation buffer (HBSS supplemented with 1% BSA, 5 mM HEPES and 1 mM IBMX, pH 7.4). The medium was aspirated and 100 μL of 95% EtOH was added to each well of the 24-well plate and cells were kept at −20° C. overnight. The EtOH was allowed to evaporate and 500 μL of lysis buffer (1% BSA, 5 mM HEPES and 0.3% Tween-20, pH 7.4) was added to each well. The plate was kept at −80° C. for 30 min and then at −20° C. until the day of detection when the samples were thawed. Intracellular cAMP levels were detected using an alpha screen CAMP kit (6760635D from Perkin Elmer). The activity for each compound is compared to that of isoproterenol.
A general note: Changes in cAMP serve as a functional read-out for many G protein-coupled receptors.

The test system of assay [2] is L6-myotubes. The assay can be described thus: Glucose uptake (3H-2-deoxyglucose) in differentiated L6-myotubes. It counts as cell-based. Conditions: compound at 10 µM (1×10^−5 M) vs isoproterenol at 10 µM, read-out: Biological example 1: glucose uptake, activity compared to that of isoproterenol. The protocol: L6-myoblasts were grown in Dulbecco's Modified Eagle's Medium (DMEM) containing 1 g/L glucose supplemented with 10% fetal bovine serum, 2 mM L-Glutamine, 50 U/ml penicillin, 50 μg/mL streptomycin and 10 mM HEPES. Cells were plated at 1×10^5 cells per mL in 24-well plates. After reaching 90% confluence the cells were grown in medium containing 2% FBS for 7 days where upon cells differentiated into myotubes. Differentiated L6-myotubes were serum-starved overnight in medium containing 0.5% fatty-acid free BSA and stimulated with an agonist, with a final concentration of 1×10^−5 M. After 1 h 40 min the cells were washed with warm glucose free medium or PBS twice and another portion of agonist was added to the glucose free medium. After 20 min the cells were exposed to 50 nM ^3H-2-deoxyglucose for another 10 min before washed in ice cold glucose free medium or PBS three times and lysed in 400 μL/well 0.2 M NaOH for 1 h at 60° C. The cell lysate was mixed with 4 mL scintillation buffer (Emulsifier Safe, Perkin Elmer) and the radioactivity was detected in a β-counter (Tri-Carb 4810TR, Perkin Elmer). The activity for each compound is compared to that of isoproterenol.

Consider `O[C@H](c1cccc(F)c1)C12CCC(COCc3ccc(Cl)cc3)(CC1)N2` [Example 1, (R)-(4-(((4-Chlorobenzyl)oxy)methyl)-7-azabicyclo[2.2.1]heptan-1-yl)(3-fluorophenyl)methanol], for which the results for the Emax at 10 µM in assay [1] and in assay [2] were < 25% and > 75%, respectively.

As to `O[C@@H](c1cccc(F)c1)C12CCC(COCc3ccc(Cl)cc3)(CC1)N2` [Example 2, (S)-(4-(((4-Chlorobenzyl)oxy)methyl)-7-azabicyclo[2.2.1]heptan-1-yl)(3-fluorophenyl)methanol], the values for the Emax at 10 µM in assay [1] and in assay [2] were < 25% and 50 to 75%, respectively.

`O[C@H](c1cccc(F)c1)C12CCC(COCc3ccc(F)cc3)(CC1)N2` [Example 3, (R)-(4-(((4-Fluorobenzyl)oxy)methyl)-7-azabicyclo[2.2.1]heptan-1-yl)(3-fluorophenyl)methanol]: the Emax at 10 µM in assay [1] is 25 to 50%; in assay [2] it was > 75%.

With `O[C@@H](c1cccc(F)c1)C12CCC(COCc3ccc(F)cc3)(CC1)N2` [Example 4, (S)-(4-(((4-Fluorobenzyl)oxy)methyl)-7-azabicyclo[2.2.1]heptan-1-yl)(3-fluorophenyl)methanol], the Emax at 10 µM was < 25% in assay [1] and 25 to 50% in assay [2].

Consider `O[C@H](c1cncc(F)c1)C12CCC(COCc3ccc(F)cc3)(CC1)N2` [Example 5, (R)-(4-(((4-Fluorobenzyl)oxy)methyl)-7-azabicyclo[2.2.1]heptan-1-yl)(5-fluoropyridin-3-yl)methanol], for which the results for the Emax at 10 µM in assay [1] and in assay [2] were 25 to 50% and > 75%, respectively.

As to `O[C@@H](c1cncc(F)c1)C12CCC(COCc3ccc(F)cc3)(CC1)N2` [Example 6, (S)-(4-(((4-Fluorobenzyl)oxy)methyl)-7-azabicyclo[2.2.1]heptan-1-yl)(5-fluoropyridin-3-yl)methanol], the Emax at 10 µM in assay [1] was < 25%; in assay [2], 50 to 75%.

Take `O[C@H](c1cccc(F)c1)C12CCC(Cc3ccccc3)(CC1)N2` [Example 7, (R)-(4-Benzyl-7-azabicyclo[2.2.1]heptan-1-yl)(3-fluorophenyl)methanol]: the Emax at 10 µM is 25 to 50% in assay [1] and > 75% in assay [2].

Consider `O[C@@H](c1cccc(F)c1)C12CCC(Cc3ccccc3)(CC1)N2` [Example 8, (S)-(4-Benzyl-7-azabicyclo[2.2.1]heptan-1-yl)(3-fluorophenyl)methanol], for which the Emax at 10 µM is < 25% in assay [1] and 50 to 75% in assay [2].

With `COc1ccc(CC23CCC([C@H](O)c4cccc(F)c4)(CC2)N3)cc1` [Example 9, (R)-(3-Fluorophenyl)(4-(4-methoxybenzyl)-7-azabicyclo[2.2.1]heptan-1-yl)methanol], the Emax at 10 µM in assay [1] is < 25%; in assay [2], > 75%.

Regarding `COc1ccc(CC23CCC([C@@H](O)c4cccc(F)c4)(CC2)N3)cc1` [Example 10, (S)-(3-Fluorophenyl)(4-(4-methoxybenzyl)-7-azabicyclo[2.2.1]heptan-1-yl)methanol], the Emax at 10 µM is < 25% in assay [1] and 50 to 75% in assay [2].

As to `O[C@H](c1cccc(F)c1)C12CCC(Cc3ccc(F)cc3)(CC1)N2` [Example 11, (R)-(4-(4-Fluorobenzyl)-7-azabicyclo[2.2.1]heptan-1-yl)-(3-fluoro-phenyl)methanol], the Emax at 10 µM in assay [1] was < 25%; in assay [2], > 75%.

As for `O[C@@H](c1cccc(F)c1)C12CCC(Cc3ccc(F)cc3)(CC1)N2` [Example 12, (S)-(4-(4-Fluorobenzyl)-7-azabicyclo[2.2.1]heptan-1-yl)-(3-fluorophenyl)methanol], the Emax at 10 µM was < 25% in assay [1] and 50 to 75% in assay [2].

Regarding `CO[C@H]1CC[C@H](CCC23CCC([C@H](O)c4cccc(F)c4)(CC2)N3)CC1` [Example 13, (R)-(3-Fluorophenyl)(4-(2-(trans-4-methoxycyclohexyl)ethyl)-7-azabicyclo[2.2.1]heptan-1-yl)methanol], the Emax at 10 µM in assay [1] is 50 to 75%; in assay [2], > 75%.

Consider `CO[C@H]1CC[C@H](CCC23CCC([C@@H](O)c4cccc(F)c4)(CC2)N3)CC1` [Example 14, (S)-(3-Fluorophenyl)(4-(2-((trans)-4-methoxycyclohexyl)ethyl)-7-aza-bicyclo[2.2.1]heptan-1-yl)methanol], for which the Emax at 10 µM in assay [1] is < 25%; in assay [2] it was 50 to 75%.

Take `O[C@H](c1cccc(F)c1)C12CCC(COCc3ccc(OC(F)(F)F)cc3)(CC1)N2` [Example 15, (R)-(3-Fluorophenyl)(4-(((4-(trifluoromethoxy)benzyl)oxy)methyl)-7-azabicyclo[2.2.1]heptan-1-yl)methanol]: the Emax at 10 µM in assay [1] and in assay [2] was < 25% in each case.

`O[C@@H](c1cccc(F)c1)C12CCC(COCc3ccc(OC(F)(F)F)cc3)(CC1)N2` [Example 16]: the Emax at 10 µM in assay [1] and in assay [2] was < 25% in each case.

`O[C@H](c1cncc(F)c1)C12CCC(COCc3ccc(OC(F)(F)F)cc3)(CC1)N2` [Example 17, (R)-(5-Fluoropyridin-3-yl)(4-(((4-(trifluoromethoxy)benzyl)oxy)-methyl)-7-azabicyclo[2.2.1]heptan-1-yl)methanol]: the Emax at 10 µM was < 25% in assay [1] and 50 to 75% in assay [2].

With `O[C@@H](c1cncc(F)c1)C12CCC(COCc3ccc(OC(F)(F)F)cc3)(CC1)N2` [Example 18, (S)-(5-Fluoropyridin-3-yl)(4-(((4-(trifluoromethoxy)benzyl)oxy)methyl)-7-azabicyclo[2.2.1]heptan-1-yl)methanol], the Emax at 10 µM in assay [1] and in assay [2] was < 25% in each case.

With `O[C@H](c1cccc(F)c1)C12CCC(Cc3ccc(OC(F)(F)F)cc3)(CC1)N2` [Example 19, (R)-(3-Fluorophenyl)(4-(4-(trifluoromethoxy)benzyl)-7-azabicyclo-[2.2.1]heptan-1-yl)methanol], the Emax at 10 µM in assay [1] and in assay [2] was < 25% each time.

`O[C@@H](c1cccc(F)c1)C12CCC(Cc3ccc(OC(F)(F)F)cc3)(CC1)N2` [Example 20, (S)-(3-Fluorophenyl)(4-(4-(trifluoromethoxy)benzyl)-7-azabicyclo-[2.2.1]heptan-1-yl)methanol]: the Emax at 10 µM in assay [1] and in assay [2] was < 25% throughout.

For `CS(=O)(=O)N(Cc1ccccc1)c1ccc(CC23CCC([C@H](O)c4cccc(F)c4)(CC2)N3)cc1` [Example 21], the Emax at 10 µM in assay [1] is < 25%; in assay [2], 25 to 50%.

In the case of `CS(=O)(=O)N(Cc1ccccc1)c1ccc(CC23CCC([C@@H](O)c4cccc(F)c4)(CC2)N3)cc1` [Example 22, N-Benzyl-N-(4-((4-((S)-(3-fluorophenyl)(hydroxy)methyl)-7-aza-bicyclo[2.2.1]heptan-1-yl)methyl)phenyl)methanesulfonamide], the Emax at 10 µM in assay [1] was < 25%; in assay [2], 25 to 50%.

In the case of `CS(=O)(=O)N(Cc1ccccc1)c1cccc(CC23CCC([C@H](O)c4cccc(F)c4)(CC2)N3)c1` [Example 23, N-Benzyl-N-(3-((4-((R)-(3-fluorophenyl)(hydroxy)methyl)-7-aza-bicyclo[2.2.1]heptan-1-yl)methyl)phenyl)methanesulfonamide], the Emax at 10 µM in assay [1] was < 25%; in assay [2], 50 to 75%.

For `CS(=O)(=O)N(Cc1ccccc1)c1cccc(CC23CCC([C@@H](O)c4cccc(F)c4)(CC2)N3)c1` [Example 24, N-Benzyl-N-(3-((4-((S)-(3-fluorophenyl)(hydroxy)methyl)-7-aza-bicyclo[2.2.1]heptan-1-yl)methyl)phenyl)methanesulfonamide], the Emax at 10 µM was < 25% in assay [1] and 50 to 75% in assay [2].

As to `CS(=O)(=O)Nc1ccc(CC23CCC([C@H](O)c4cccc(F)c4)(CC2)N3)cc1` [Example 25, N-(4-((4-((R)-(3-Fluorophenyl)(hydroxy)methyl)-7-azabicyclo[2.2.1]-heptan-1-yl)methyl)phenyl)methanesulfonamide], the Emax at 10 µM in assay [1] was < 25%; in assay [2], 50 to 75%.

With `CS(=O)(=O)Nc1ccc(CC23CCC([C@@H](O)c4cccc(F)c4)(CC2)N3)cc1` [Example 26, N-(4-((4-((S)-(3-Fluorophenyl)(hydroxy)methyl)-7-azabicyclo[2.2.1]-heptan-1-yl)methyl)phenyl)methanesulfonamide], the Emax at 10 µM is < 25% in assay [1] and 50 to 75% in assay [2].
